Assay results published in PubChem BioAssay (NCI).
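Values below derive from 48-hour exposures of cells grown in 96-well plates, with endpoints linearly interpolated between the two concentrations bracketing the appropriate inhibition level. TGI denotes the concentration required for complete inhibition of growth.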

Assays:
Experiment in all cases: NCI anticancer screen, dose series, 48 h
KM12 colon = system: KM12 colon
SK-MEL-28 melanoma = system: SK-MEL-28 melanoma
HCT-116 colon = system: HCT-116 colon
A549 NSCLC = system: A549 NSCLC
HL-60(TB) leukemia = system: HL-60(TB) leukemia
MCF7 breast = system: MCF7 breast
LOX IMVI melanoma = system: LOX IMVI melanoma
OVCAR-5 ovarian = system: OVCAR-5 ovarian
UACC-62 melanoma = system: UACC-62 melanoma
IGROV1 ovarian = system: IGROV1 ovarian
K-562 leukemia = system: K-562 leukemia
NCI-H460 lung = system: NCI-H460 lung
TK-10 renal = system: TK-10 renal
U251 CNS = system: U251 CNS
SW-620 colon = system: SW-620 colon
DU-145 prostate = system: DU-145 prostate
HS 578T breast = system: HS 578T breast
HCT-15 colon = system: HCT-15 colon
SNB-75 CNS = system: SNB-75 CNS
HOP-62 NSCLC = system: HOP-62 NSCLC
MDA-N = system: MDA-N
786-0 renal = system: 786-0 renal
A498 renal = system: A498 renal
SF-295 CNS = system: SF-295 CNS
RXF 393 renal = system: RXF 393 renal
SK-MEL-5 melanoma = system: SK-MEL-5 melanoma
NCI-H226 lung = system: NCI-H226 lung
T-47D breast = system: T-47D breast
SF-268 CNS = system: SF-268 CNS
UO-31 renal = system: UO-31 renal
SNB-19 CNS = system: SNB-19 CNS
SR leukemia = system: SR leukemia
M14 melanoma = system: M14 melanoma
OVCAR-3 ovarian = system: OVCAR-3 ovarian
MOLT-4 leukemia = system: MOLT-4 leukemia
PC-3 prostate = system: PC-3 prostate
NCI-H522 lung = system: NCI-H522 lung
SF-539 CNS = system: SF-539 CNS
NCI/ADR-RES ovarian = system: NCI/ADR-RES ovarian
RPMI-8226 leukemia = system: RPMI-8226 leukemia
BT-549 breast = system: BT-549 breast
EKVX NSCLC = system: EKVX NSCLC
OVCAR-8 ovarian = system: OVCAR-8 ovarian
COLO 205 colon = system: COLO 205 colon
SK-OV-3 ovarian = system: SK-OV-3 ovarian
HT29 colon = system: HT29 colon
UACC-257 melanoma = system: UACC-257 melanoma
MALME-3M melanoma = system: MALME-3M melanoma
SK-MEL-2 melanoma = system: SK-MEL-2 melanoma
NCI-H23 lung = system: NCI-H23 lung
HOP-92 NSCLC = system: HOP-92 NSCLC
HCC-2998 colon = system: HCC-2998 colon
MDA-MB-231 breast = system: MDA-MB-231 breast
CCRF-CEM leukemia = system: CCRF-CEM leukemia
ACHN renal = system: ACHN renal
SN12C renal = system: SN12C renal
MDA-MB-435 = system: MDA-MB-435
OVCAR-4 ovarian = system: OVCAR-4 ovarian
CAKI-1 renal = system: CAKI-1 renal

With O=[N+]([O-])c1c(F)c(F)c2c(c1F)N(CCCCCl)c1ccccc1S2 the TGI (KM12 colon) was 23.5 µM, the TGI (SK-MEL-28 melanoma) was 10.9 µM and the TGI (HCT-116 colon) was 11.2 µM. For the same compound, the TGI (A549 NSCLC) was 31.8 µM, the TGI (HL-60(TB) leukemia) was 5.7 µM and the TGI (MCF7 breast) was 11.9 µM. The TGI (LOX IMVI melanoma) was 3.06 µM, the TGI (OVCAR-5 ovarian) was 33.6 µM and the TGI (UACC-62 melanoma) was 26.9 µM. It also gave a TGI (IGROV1 ovarian) of 5.36 µM, a TGI (K-562 leukemia) of 4.74 µM and a TGI (NCI-H460 lung) of 9.91 µM. For the same compound, the TGI (TK-10 renal) was 32.5 µM, the TGI (U251 CNS) was 25.3 µM and the TGI (SW-620 colon) was 8.78 µM. For the same compound, the TGI (DU-145 prostate) was 26.1 µM, the TGI (HS 578T breast) was 74.4 µM and the TGI (HCT-15 colon) was 3.31 µM. It also gave a TGI (SNB-75 CNS) of 17.2 µM, a TGI (HOP-62 NSCLC) of 38.3 µM and a TGI (MDA-N) of 28.9 µM. For the same compound, the TGI (786-0 renal) was 23.8 µM, the TGI (A498 renal) was 21.1 µM and the TGI (SF-295 CNS) was 31.1 µM. It also gave a TGI (RXF 393 renal) of 27.4 µM, a TGI (SK-MEL-5 melanoma) of 32.7 µM and a TGI (NCI-H226 lung) of 33.1 µM. For the same compound, the TGI (T-47D breast) was 27.7 µM, the TGI (SF-268 CNS) was 18.3 µM and the TGI (UO-31 renal) was 30.5 µM. It also gave a TGI (SNB-19 CNS) of 19.5 µM, a TGI (SR leukemia) greater than 100 µM and a TGI (M14 melanoma) of 18.2 µM. The TGI (OVCAR-3 ovarian) was 19.5 µM, the TGI (MOLT-4 leukemia) was greater than 21.6 µM and the TGI (PC-3 prostate) was 12.7 µM. For the same compound, the TGI (NCI-H522 lung) was 12.3 µM, the TGI (SF-539 CNS) was 31.9 µM and the TGI (NCI/ADR-RES ovarian) was 37.5 µM. It also gave a TGI (RPMI-8226 leukemia) of 20.8 µM, a TGI (BT-549 breast) of 28 µM and a TGI (EKVX NSCLC) of 41.3 µM. For the same compound, the TGI (OVCAR-8 ovarian) was 11.3 µM, the TGI (COLO 205 colon) was 27.5 µM and the TGI (SK-OV-3 ovarian) was 34 µM. It also gave a TGI (HT29 colon) of 6.74 µM, a TGI (UACC-257 melanoma) of 27.5 µM and a TGI (MALME-3M melanoma) of 31.4 µM. The TGI (SK-MEL-2 melanoma) was 8.18 µM, the TGI (NCI-H23 lung) was 21.7 µM and the TGI (HOP-92 NSCLC) was 39 µM. For the same compound, the TGI (HCC-2998 colon) was 8.48 µM, the TGI (MDA-MB-231 breast) was 21.9 µM and the TGI (CCRF-CEM leukemia) was 6.35 µM. It also gave a TGI (ACHN renal) of 30.4 µM, a TGI (SN12C renal) of 20.2 µM and a TGI (MDA-MB-435) of 20.2 µM. It also gave a TGI (OVCAR-4 ovarian) of 21.2 µM and a TGI (CAKI-1 renal) of 19.3 µM.
